Results on seven compounds are retold here after patent US20080146555A1, “Uses of Kinase Inhibitors and Compositions Thereof” (GPC Biotech, Inc, priority 2004, published 2008).

Several values for one entry are separate records, joined by “and”; a condition that tells them apart may be missing. Equal values may be shown once.

For one assay, the system named is HT29. The experiment in a line: SRB cytotoxicity, HT29 parental cells. It is filed as cell-based. The settings on record: Homo sapiens, HT-29, 72 h. As to the method:
(§1) In these experiments, the P-glycoprotein expressing NCI-Adr resistant subline (Vickers et al., 1989. Mol Endocrinology 3 (1):157-164) was used. […] Briefly, cells were plated in 96 well dishes 24 hours prior to compound addition. Where noted, they were exposed to verapamil for 4 hours prior to compound addition and then throughout the treatment period (72 hours). The assay was terminated with the addition of cold TCA to a final concentration of 10% and the plates were incubated for one hour at 4° C. The plates were then washed 5 times with water and 100 μl of a Sulforhodamine B solution (4%) was added to each well. The plate was then incubated for 10 minutes at room temperature before removal of unbound dye by washing with 1% acetic acid.
(§2) The parental non-mutated cell line HT29 was used as a control.
(§3) Z. Cytotoxicity was measured using the SRB assay according to Shekan et al. as described above in Example 1A.

For the next assay, the system named is HT29/mit. The experiment in a line: SRB cytotoxicity, mitoxanthrone resistant cells. The assay is classed as cell-based, human. As to the method:
as §1, with “acid. The bound dye was solubilized with 10 mM Trizma base and the absorbance read at OD570.” for “acid.”
as §2, §3

In the next assay the test system is A129. Nature of the assay: SRB cytotoxicity, A129 parental cells. It is filed as cell-based, human. Particulars: 72 h. As to the method: as §1
The parental non-mutated cell line A129 was used as a control.

For another assay, the system named is A129 cp80. Nature of the assay: SRB cytotoxicity, cisplatin resistant cells. The assay is classed as cell-based, human.
Another assay deals with 1A9. Nature of the assay: SRB cytotoxicity, 1A9 parental cells. Particulars: Homo sapiens, 72 h. The assay is classed as cell-based. As to the method: as §1
(§4) The tubulin mutated, paclitaxel-resistant human ovarian carcinoma cell line 1A9-PTX10 and its parental paclitaxel-sensitive cell line 1A9 were derived from the A2780 human ovarian carcinoma cell line (J Biol Chem (1997) 272, 17118-17124).

Another assay has as its system 1A9-PTX10. The experiment in a line: SRB cytotoxicity, tubulin mutated paclitaxel-resistant cells. It is filed as cell-based, human. Particulars: for IC50: Homo sapiens, 1A9/ptx-10, 72 h, SRB. As to the method: as §1, §4
A further assay deals with NCI-Adr resistant. The experiment in a line: SRB cytotoxicity, P-glycoprotein expressing cells with and without verapamil. The assay is classed as cell-based. Particulars: for IC50: Homo sapiens, NCI/ADR-RES, 72 h, SRB. As to the method: as §1
In another assay the test system is CEM/C2. Nature of the assay: SRB cytotoxicity, camptothecin resistant cells. It is filed as cell-based, human. As to the method:
as §1
(§5) The Camptothecin resistant CEM/C2 cells were derived from the T lymphoblastoid leukemia cell line CCRF/CEM by selection in the presence of Camptothecin in vitro (Kapoor et al., 1995. Oncology Research 7; 83-95, ATCC).
(§6) The effects of A37 and B16 were evaluated in the CCRF/CEM and CEM/C2 cells using the same SRB assay as described above, with 72-hour drug exposure.

The next assay deals with CEM. The experiment in a line: SRB cytotoxicity, CEM parental cells. Particulars: Homo sapiens, CCRF-CEM, 72 h. It is filed as cell-based. As to the method:
as §1, §5, §6

A further assay addresses CDKs. The experiment in a line: Kinase panel, CDKs (average/range). The assay is classed as biochemical. The settings on record: comparison drug; read-out: average IC50 for CDK1, CDK2, and CDK4.
Assay [1] has as its system HCT-116 cells. Nature of the assay: Calcein AM viability assay, HCT-116. The assay is classed as cell-based. Particulars: Homo sapiens. On the procedure: (§7) The potency of the subject kinase inhibitors, as measured by loss of cellular viability, was determined with the Calcein AM assay (Molecular Probes). Calcein AM is a substrate of intracellular esterases, which is cleaved only in viable cells to generate a fluorescent product that can be quantified with a fluorescent plate reader. The fluorescent signal is proportional to the number of viable cells, and thus loss of signal in response to the exposure of cells to the subject kinase inhibitors correlates with a loss of viability. This assay not only distinguishes cell cycle arrest, in which cells may still by viable, from loss of viability, and is thus well suited for the evaluation of the subject kinase inhibitors. A compound that is a potent cytotoxic agent may cause significant loss of cell viability in such an assay.
(§8) Cellular IC50's were determined in the human colorectal carcinoma cell line, HCT-116, and the normal human fibroblast, IMR90. Protein adjusted IC50's were also determined in HCT-116. Results of such viability assays are presented in Table 2 (HCT-116 (viability/protein adjusted) and IMR-90). IC50's (μM, non-protein adjusted) for the viability assay against HCT-116 cells are shown for further compounds of the invention in Table 4.
(§9) HCT-116 or IMR90 cells were recovered from sub-confluent plates by trypsinization and 1,000 or 4,000 cells, respectively, were plated in 24-well dishes and incubated overnight at 37° C., 5% CO2. HCT-116 cells were cultured in RPMI-1640, 10% FCS, and IMR90 cells were cultured in Minimum Essential Medium-alpha, 10% FCS. After overnight incubation to allow adherence, the media was aspirated from each well and replaced with media containing a test compound at a concentration from 0 to 250 nM, spanning a total of 7 doses. The plates were returned to the incubator and cultured for an additional 72 hours (3 days). […] After 72-hours incubation with the test compound, the cells were washed twice with 1×PBS, taking special care to remove all residual buffer.
(§10) A 5 μM Calcein AM solution was prepared by dissolving a 50 μg aliquot of Calcein (Molecular Probes catalog #C3100) in 50 μl DMSO. After the Calcein had completely dissolved (10 minutes at room temperature), it was diluted into 10 ml PBS. Calcein/PBS (0.5 ml) was added to each well. The plates were incubated for 75 minutes at 37° C. (protected from light) and the fluorescent signal was read on a fluorescent plate reader (excitation 485/20 and emission 530/25).

Assay [2] has as its system NCI panel of 60 cell lines. The experiment in a line: cells. Particulars: Homo sapiens, 60 cell, 48 h, read-out: NCI panel MG-MID (Mean-Graph Mid-point, average IC50 over panel), 48 h, SRB; IC50 <10 nM counted as 10 nM. The text has this:
(§11) The evaluation of compounds at the National Cancer Institute in their panel of 60 cell lines provides a wealth of information regarding efficacy in a wide range of tumor types and genetic backgrounds. Included within this panel are cell lines derived from leukemia, melanoma and cancers of the lung, colon, brain, ovary, breast, prostate and kidney. Use of this panel provides a measure of the efficacy of compounds in cells with alterations in many genes that are associated with neoplastic transformation including p53 and Her2/Neu as well as those involved in metabolism and those which confer multi-drug resistance. The data generated in these cell lines with the protocol described below can be used to evaluate the activity of compounds.
(§12) Cells were grown in RPMI-1640 10% FCS and plated in 96 well micro-titer plates at densities ranging from 5,000 to 40,000 cells/well. The plates were incubated for 24 hours at 37° C., 5% CO2 for 24 hours. Media containing twice the desired final concentration of the compound (5 doses spanning 4 logs) was prepared and 100 μl was added to each well containing 100 μl media plus cells to yield the desired final concentration. The plates were then incubated for an additional 48 hours.
(§13) The effect of the compound on cellular viability was determined with the Sulforhodamine B (SRB) assay, which measures total protein. Cells were fixed with cold TCA to a final concentration of 10% and incubated at 4° C. for 60 minutes. The supernatant was discarded and the plates were washed five times with water and air-dried. SRB solution at […] in 1% acetic acid was added to each well and the plates were incubated for 10 minutes at room temperature. The plates were washed five times with 1% acetic acid and air-dried. The bound stain was solubilized with 10 mM trizma base and the absorbance was read on a plate reader at […].

The test system of assay [3] is normal human fibroblast, IMR90. Nature of the assay: Calcein AM viability assay, IMR90. The assay is classed as cell-based. Particulars: IMR-90, Calcein AM, 72 h. On the procedure: as §7, §8, §9, §10
For assay [4], the system named is HCT-116 cells. The experiment in a line: Clonogenic survival assay with HCT-116 cells. Particulars: Homo sapiens, 24 h exposure, read-out: HCT-116 IC50 Clonogenic 24 h. The assay is classed as cell-based. As to the method:
This assay was used to determine the concentration of a compound that results in irreversible loss of viability after a specified period of exposure. Essentially, cells are exposed to compound for a period of […], and are then transferred to compound-free growth medium. After continued incubation in the compound-free medium for a number of days, the number of colonies recovered is counted as an estimate of the number of surviving cells.
Media (RPMI-1640, 10% FCS, pen/strep) was pre-warmed to 37° C. in a water bath. Cells were incubated and grown at 37° C., 5% CO2. Cells were recovered by trypsinization from sub-confluent plates and counted using a hemocytometer. 1×10^4 cells were plated in 25 mls of media in a 15 cm tissue culture dish. […] were set up for each test compound, and were incubated overnight at 37° C. The compound was diluted into media at 7 concentrations and the media on the cells was replaced with that containing the test compound. Two plates were set up for each concentration of the compound to be tested, as well as two control plates without compound. Plates were incubated as above for […], media was removed and replaced with fresh media, and the plates were incubated an additional 7 days and washed with PBS. Colonies were stained with crystal violet solution (0.4% crystal violet, 20% ethanol) for 5 minutes, washed twice with distilled water, and counted.

Assay [5] deals with adriamycin resistant cell line (ADR-res). The experiment in a line: NCI panel, adriamycin resistant cell line, SRB assay. The assay is classed as cell-based. The settings on record: Homo sapiens, 48 h.
Excerpt: as §11, §12, §13

In the case of `O=C1c2c(O)ccc(O)c2C(=O)c2c(NCCNCCO)ccc(NCCNCCO)c21` [Mitoxanthrone, reference compound], the 50% inhibitory concentration (IC50) in the assay on HT29 came to 1230 nM; in the assay on HT29/mit (Homo sapiens, HT-29, 72 h, SRB), 188000 nM. In the assay on HT29/mit, the “RR (relative resistance) HT29/mit vs HT29” value came to 153.1.

For the compound `N.N.[Cl][Pt][Cl]` [Cisplatin, cis-diamminedichloroplatinum (II), reference compound], the IC50 in the assay with A129 is 324 nM; in the assay with A129 cp80 (72 h, SRB), 16700 nM. Besides, the “RR (relative resistance) A129 cp80 vs A129” value in the assay with A129 cp80 was 51.6.

As for `CC(=O)O[C@H]1C(=O)[C@@]2(C)[C@H]([C@H](OC(=O)c3ccccc3)[C@]3(O)C[C@H](OC(=O)[C@H](O)[C@@H](NC(=O)c4ccccc4)c4ccccc4)C(C)=C1C3(C)C)[C@]1(OC(C)=O)CO[C@@H]1C[C@@H]2O` [Paclitaxel, reference compound], the half-maximal inhibitory concentration (IC50) in the assay on 1A9 was 4 nM; with 1A9-PTX10, 235 nM; in the assay with NCI-Adr resistant (verapamil 12.5 μg/ml) it was 39 nM; in the assay on NCI-Adr resistant (without verapamil), 3960 nM. Further, the “RR (relative resistance) 1A9-PTX10 vs 1A9” value in the assay on 1A9-PTX10 (ratio of mean IC50 resistant/sensitive) is on record as 59. Also, the “RR (relative resistance) NCI-Adr resistant −/+ verapamil” value with NCI-Adr resistant (ratio of mean IC50) is listed as 101.5.

Regarding `CC[C@@]1(O)C(=O)OCc2c1cc1n(c2=O)Cc2cc3ccccc3nc2-1` [Camptothecin, reference compound], the “RR (relative resistance) CEM/C2 vs CEM” value in the assay with CEM/C2 was 1378. The IC50 with CEM/C2 (Homo sapiens, CEM/C2, 72 h, SRB) came to 4820 nM; with CEM, 3.5 nM.

With `CC(=O)O[C@@]12CO[C@@H]1C[C@H](O)[C@@]1(C)C(=O)[C@H](O)C3=C(C)[C@@H](OC(=O)[C@H](O)[C@@H](NC(=O)OC(C)(C)C)c4ccccc4)C[C@@](O)([C@@H](OC(=O)c4ccccc4)[C@H]21)C3(C)C` [Taxotere, N-debenzoyl-N-tert-butoxycarbonyl-10-deacetyl paclitaxel, reference compound], the IC50 in the assay on 1A9 is 1.75 nM; in the assay on 1A9-PTX10 it was 160 nM; with NCI-Adr resistant (verapamil 12.5 μg/ml) it was 36.3 nM; with NCI-Adr resistant (without verapamil) it was 3310 nM.

For `CN1CC[C@H](c2c(O)cc(O)c3c(=O)cc(-c4ccccc4Cl)oc23)[C@H](O)C1` [Flavopiridol, reference compound], at CDKs, the half-maximal inhibitory concentration (IC50) is ~650 nM and 650 nM.

With `CN1CCN(NC(=O)Nc2cccc3c2C(=O)c2c-3n[nH]c2-c2ccc(OCCN3CCCC3)cc2)CC1` [F], the 50% inhibitory concentration (IC50) with HCT-116 cells [1] (HCT-116, 72 h, Calcein AM, 72 h, read-out: HCT-116 IC50 Viability) was below 100 nM; in the assay on HCT-116 cells [1] (HCT-116, plus 1 mg/ml alpha acidic glycoprotein and 45 mg/ml human serum albumin, read-out: HCT-116 IC50 Protein adjusted), below 100 nM; in assay [2], below 100 nM; in assay [3], below 100 nM; in the assay with HCT-116 cells [4], below 1000 nM; in assay [5] it was below 1000 nM.
